What was measured:
Assay type in all cases: in vivo
[1] = tested on: Alopecurus myosuroides (ALOMY); assay: Pre-emergence herbicidal activity, glasshouse pot test; conditions: 480 h, rate 250 g/ha, evaluated 20 days later, 100=total damage to plant, 0=no damage to plant
Description: (§1) Monocotyledonous and dicotyledonous test plants were sown in standard soil in pots. After cultivation for one day (pre-emergence) or after 10 days cultivation (post-emergence) under controlled conditions in a glasshouse, the plants were sprayed with an aqueous spray solution derived from the formulation of the technical active ingredient in 0.6 ml acetone and 45 ml formulation solution containing 10.6% Emulsogen EL (Registry number 61791-12-6), 42.2% N-methylpyrrolidone, 42.2% dipropylene glycol monomethyl ether (Registry number 34590-94-8) and 0.2% X-77 (Registry number 11097-66-8). The test plants were then grown in a greenhouse under optimum conditions until, 15 days later for post-emergence and 20 days for pre-emergence, the test was evaluated (100=total damage to plant; 0=no damage to plant). Test Plants: Alopecurus myosuroides (ALOMY), Avena fatua (AVEFA), Lolium perenne (LOLPE), Setaria faberi (SETFA), Digitaria sanguinalis (DIGSA), Echinochloa crus-galli (ECHCG)

Avena fatua (AVEFA) [2] = assay: as above; conditions: 480 h, rate 250 g/ha, evaluated 20 days later, 100=total damage to plant, 0=no damage to plant
Description: as §1

[3] = tested on: Digitaria sanguinalis (DIGSA); assay: as above; conditions: 480 h, rate 250 g/ha, evaluated 20 days later, 100=total damage to plant, 0=no damage to plant
Description: as §1

[4] = tested on: Echinochloa crus-galli (ECHCG); assay: as above; conditions: 480 h, rate 250 g/ha, evaluated 20 days later, 100=total damage to plant, 0=no damage to plant
Description: as §1

Lolium perenne (LOLPE) [5] = assay: as above; conditions: 480 h, rate 250 g/ha, evaluated 20 days later, 100=total damage to plant, 0=no damage to plant
Description: as §1

Setaria faberi (SETFA) [6] = assay: as above; conditions: 480 h, rate 250 g/ha, evaluated 20 days later, 100=total damage to plant, 0=no damage to plant
Description: as §1

[7] = tested on: Alopecurus myosuroides (ALOMY); assay: Post-emergence herbicidal activity, glasshouse pot test; conditions: 360 h, rate 125 g/ha, evaluated 15 days later, 100=total damage to plant, 0=no damage to plant
Description: as §1

Avena fatua (AVEFA) [8] = assay: as above; conditions: 360 h, rate 125 g/ha, evaluated 15 days later, 100=total damage to plant, 0=no damage to plant
Description: as §1

[9] = tested on: Digitaria sanguinalis (DIGSA); assay: as above; conditions: 360 h, rate 125 g/ha, evaluated 15 days later, 100=total damage to plant, 0=no damage to plant
Description: as §1

[10] = tested on: Echinochloa crus-galli (ECHCG); assay: as above; conditions: 360 h, rate 125 g/ha, evaluated 15 days later, 100=total damage to plant, 0=no damage to plant
Description: as §1

Lolium perenne (LOLPE) [11] = assay: as above; conditions: 360 h, rate 125 g/ha, evaluated 15 days later, 100=total damage to plant, 0=no damage to plant
Description: as §1

Setaria faberi (SETFA) [12] = assay: as above; conditions: 360 h, rate 125 g/ha, evaluated 15 days later, 100=total damage to plant, 0=no damage to plant
Description: as §1

Cc1cc(-c2ccccc2)cc(C)c1C1=C(OC(=O)C(C)(C)C)[C@H]2[C@@H](C1=O)[C@]1(C)CC[C@H]2O1 [Compound P7]
pest or weed control at 250 g/ha [1]: 100% | pest or weed control at 250 g/ha (Avena fatua (AVEFA) [2]): 90% | pest or weed control at 250 g/ha [3]: 100% | pest or weed control at 250 g/ha [4]: 90% | pest or weed control at 250 g/ha (Lolium perenne (LOLPE) [5]): 100% | pest or weed control at 250 g/ha (Setaria faberi (SETFA) [6]): 100% | pest or weed control at 125 g/ha [7]: 100% | pest or weed control at 125 g/ha (Avena fatua (AVEFA) [8]): 100% | pest or weed control at 125 g/ha [9]: 100% | pest or weed control at 125 g/ha [10]: 100% | pest or weed control at 125 g/ha (Lolium perenne (LOLPE) [11]): 80% | pest or weed control at 125 g/ha (Setaria faberi (SETFA) [12]): 100%

CCc1ccc(-c2ccc(Cl)cc2F)cc1C1=C(O)[C@H]2[C@@H](C1=O)[C@]1(C)CC[C@@]2(C)O1 (racemic) [Compound T23, (1RS,2SR,6RS,7SR)-4-(4′-chloro-4-ethyl-2′-fluorobiphen-3-yl)-1,7-dimethyl-10-oxatricyclo[5.2.1.0^2,6]decane-3,5-dione]
pest or weed control at 250 g/ha [1]: 40% | pest or weed control at 250 g/ha (Avena fatua (AVEFA) [2]): 60% | pest or weed control at 250 g/ha [3]: 100% | pest or weed control at 250 g/ha [4]: 100% | pest or weed control at 250 g/ha (Lolium perenne (LOLPE) [5]): 70% | pest or weed control at 250 g/ha (Setaria faberi (SETFA) [6]): 100% | pest or weed control at 125 g/ha [7]: 100% | pest or weed control at 125 g/ha (Avena fatua (AVEFA) [8]): 100% | pest or weed control at 125 g/ha [9]: 90% | pest or weed control at 125 g/ha [10]: 100% | pest or weed control at 125 g/ha (Lolium perenne (LOLPE) [11]): 70% | pest or weed control at 125 g/ha (Setaria faberi (SETFA) [12]): 90%

CCc1ccc(-c2ccc(Cl)cc2)cc1C1=C(O)[C@H]2[C@@H](C1=O)[C@]1(C)CC[C@@]2(C)O1 [Compound T3]
pest or weed control at 250 g/ha [1]: 70% | pest or weed control at 250 g/ha (Avena fatua (AVEFA) [2]): 80% | pest or weed control at 250 g/ha [3]: 100% | pest or weed control at 250 g/ha [4]: 100% | pest or weed control at 250 g/ha (Lolium perenne (LOLPE) [5]): 80% | pest or weed control at 250 g/ha (Setaria faberi (SETFA) [6]): 100% | pest or weed control at 125 g/ha [7]: 100% | pest or weed control at 125 g/ha (Avena fatua (AVEFA) [8]): 90% | pest or weed control at 125 g/ha [9]: 90% | pest or weed control at 125 g/ha [10]: 90% | pest or weed control at 125 g/ha (Lolium perenne (LOLPE) [11]): 80% | pest or weed control at 125 g/ha (Setaria faberi (SETFA) [12]): 90%

CCc1ccc(-c2ccc(Cl)nc2Cl)cc1C1=C(O)[C@H]2[C@@H](C1=O)[C@@H]1CC[C@H]2O1 [Compound T21]
pest or weed control at 250 g/ha [1]: 50% | pest or weed control at 250 g/ha (Avena fatua (AVEFA) [2]): 50% | pest or weed control at 250 g/ha [3]: 90% | pest or weed control at 250 g/ha [4]: 100% | pest or weed control at 250 g/ha (Lolium perenne (LOLPE) [5]): 60% | pest or weed control at 250 g/ha (Setaria faberi (SETFA) [6]): 100% | pest or weed control at 125 g/ha [7]: 80% | pest or weed control at 125 g/ha (Avena fatua (AVEFA) [8]): 80% | pest or weed control at 125 g/ha [9]: 100% | pest or weed control at 125 g/ha [10]: 100% | pest or weed control at 125 g/ha (Lolium perenne (LOLPE) [11]): 40% | pest or weed control at 125 g/ha (Setaria faberi (SETFA) [12]): 90%

CCc1ccc(-c2ccc(Cl)c(F)c2Cl)cc1C1=C(O)[C@H]2[C@@H](C1=O)[C@]1(C)CC[C@@]2(C)O1 [Compound T37]
pest or weed control at 250 g/ha [1]: 20% | pest or weed control at 250 g/ha (Avena fatua (AVEFA) [2]): 30% | pest or weed control at 250 g/ha [3]: 100% | pest or weed control at 250 g/ha [4]: 80% | pest or weed control at 250 g/ha (Lolium perenne (LOLPE) [5]): 50% | pest or weed control at 250 g/ha (Setaria faberi (SETFA) [6]): 80% | pest or weed control at 125 g/ha [7]: 90% | pest or weed control at 125 g/ha (Avena fatua (AVEFA) [8]): 100% | pest or weed control at 125 g/ha [9]: 100% | pest or weed control at 125 g/ha [10]: 100% | pest or weed control at 125 g/ha (Lolium perenne (LOLPE) [11]): 70% | pest or weed control at 125 g/ha (Setaria faberi (SETFA) [12]): 100%

CCc1ccc(-c2ccc(Cl)c(F)c2)cc1C1=C(O)[C@H]2[C@@H](C1=O)[C@@H]1CC[C@H]2O1 [Compound T19]
pest or weed control at 250 g/ha [1]: 70% | pest or weed control at 250 g/ha (Avena fatua (AVEFA) [2]): 70% | pest or weed control at 250 g/ha [3]: 100% | pest or weed control at 250 g/ha [4]: 90% | pest or weed control at 250 g/ha (Lolium perenne (LOLPE) [5]): 60% | pest or weed control at 250 g/ha (Setaria faberi (SETFA) [6]): 90% | pest or weed control at 125 g/ha [7]: 100% | pest or weed control at 125 g/ha (Avena fatua (AVEFA) [8]): 100% | pest or weed control at 125 g/ha [9]: 100% | pest or weed control at 125 g/ha [10]: 100% | pest or weed control at 125 g/ha (Lolium perenne (LOLPE) [11]): 90% | pest or weed control at 125 g/ha (Setaria faberi (SETFA) [12]): 100%

Cc1cc(-c2ccc(C(F)(F)F)cc2)cc(C)c1C1C(=O)[C@@H]2[C@H](C1=O)[C@H]1CC[C@@H]2O1 (stereo partly drawn) [Compound T26]
pest or weed control at 250 g/ha [1]: 0% | pest or weed control at 250 g/ha (Avena fatua (AVEFA) [2]): 0% | pest or weed control at 250 g/ha [3]: 70% | pest or weed control at 250 g/ha [4]: 70% | pest or weed control at 250 g/ha (Lolium perenne (LOLPE) [5]): 0% | pest or weed control at 250 g/ha (Setaria faberi (SETFA) [6]): 70% | pest or weed control at 125 g/ha [7]: 30% | pest or weed control at 125 g/ha (Avena fatua (AVEFA) [8]): 20% | pest or weed control at 125 g/ha [9]: 90% | pest or weed control at 125 g/ha [10]: 90% | pest or weed control at 125 g/ha (Lolium perenne (LOLPE) [11]): 30% | pest or weed control at 125 g/ha (Setaria faberi (SETFA) [12]): 100%

— US8940913B2, “Herbicides” (Syngenta Crop Protection, LLC, priority 2007, dated 2015)
